Consider 19 compounds from patent US20240018133A1, “MODULATORS OF THE INTEGRATED STRESS PATHWAY” (Calico Life Sciences LLC, priority 2019, published 2024).

The structures appear in SMILES notation.

In the test the test system is ATF4 luciferase reporter (human full-length ATF4 5'-UTR fused to firefly luciferase) in HEK293T cells. Briefly: ATF4-Luc assay (in vitro model of VWMD): HEK293T cells carrying ATF4 luciferase reporter, tunicamycin-treated. It counts as cell-based. Conditions: Homo sapiens, HEK-293T, 1 μg/mL tunicamycin, 7 hours, One Glo luminescence. The essentials: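 Compound at 200 nM and tunicamycin at 1 μg/mL were given together for 7 h to HEK293T cells stably transduced with an ATF4 5′-UTR-driven firefly luciferase reporter. Read-out by luminescence, reported as EC50.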

Consider `COc1ccc2oc(C(=O)NC34CC(NC(=O)COc5ccc(Cl)c(F)c5)(C3)C4)cc(=O)c2n1` [Compound 322, N-{3-[2-(4-chloro-3-fluorophenoxy)acetamido]bicyclo[1.1.1]pentan-1-yl}-6-methoxy-4-oxo-4H-pyrano[3,2-b]pyridine-2-carboxamide], for which the EC50 is 50 to 250 nM.

Regarding `O=C(COc1ccc(Cl)c(F)c1)NC12CC(NC(=O)[C@@H]3C[C@@H](NCC(F)(F)F)c4cc(Cl)ccc4O3)(C1)C2` [Compound 323, (2S,4R)-6-chloro-N-{3-[2-(4-chloro-3-fluorophenoxy)acetamido]bicyclo[1.1.1]pentan-1-yl}-4-[(2,2,2-trifluoroethyl)amino]-3,4-dihydro-2H-1-benzopyran-2-carboxamide], the EC50 fell in the range of 50 to 250 nM.

As to `CN(C(=O)c1cc(=O)c2cc(Cl)ccc2o1)C12CC(NC(=O)COc3ccc(Cl)c(F)c3)(C1)C2` [Compound 324, 6-chloro-N-{3-[2-(4-chloro-3-fluorophenoxy)acetamido]bicyclo[1.1.1]pentan-1-yl}-N-methyl-4-oxo-4H-1-benzopyran-2-carboxamide], the EC50 was 250 to 500 nM.

In the case of `O=C(COc1ccc(Cl)c(F)c1)NC12CC(NC(=O)[C@H]3CN(CC4(O)CC4)c4cc(Cl)ccc4O3)(C1)C2` [Compound 325, (2R)-6-chloro-N-{3-[2-(4-chloro-3-fluorophenoxy)acetamido]bicyclo[1.1.1]pentan-1-yl}-4-[(1-hydroxycyclopropyl)methyl]-3,4-dihydro-2H-1,4-benzoxazine-2-carboxamide], the EC50 was 10 to 50 nM.

On to `O=C(COc1ccc(Cl)c(F)c1)NC12CCC(NC(=O)C3CC(=O)c4cc(Cl)ccc4O3)(CC1)CC2` (stereo not shown) [Compound 326, 6-chloro-N-{4-[2-(4-chloro-3-fluorophenoxy)acetamido]bicyclo[2.2.2]octan-1-yl}-4-oxo-3,4-dihydro-2H-1-benzopyran-2-carboxamide], for which the EC50 lay within 10 to 50 nM.

As for `O=C(COc1ccc(Cl)c(F)c1)NC12CC(NC(=O)[C@H]3C[C@H](NCC(F)(F)F)c4cc(Cl)ccc4O3)(C1)C2` [Compound 327, (2R,4S)-6-chloro-N-{3-[2-(4-chloro-3-fluorophenoxy)acetamido]bicyclo[1.1.1]pentan-1-yl}-4-[(2,2,2-trifluoroethyl)amino]-3,4-dihydro-2H-1-benzopyran-2-carboxamide], the EC50 lay within 50 to 250 nM.

Take `O=C(COc1ccc(Cl)c(F)c1)NC12CC(NC(=O)[C@H]3C[C@@H](N[C@H]4C[C@@H](O)C4)c4cc(Cl)ccc4O3)(C1)C2` [Compound 328, (2R,4R)-6-chloro-N-{3-[2-(4-chloro-3-fluorophenoxy)acetamido]bicyclo[1.1.1]pentan-1-yl}-4-{[(1s,3S)-3-hydroxycyclobutyl]amino}-3,4-dihydro-2H-1-benzopyran-2-carboxamide]: the EC50 is 50 to 250 nM.

For `O=C(COc1cnc(C(F)(F)F)nc1)NC12CC(NC(=O)[C@H]3CC(=O)c4cc(Cl)ccc4O3)(C1)C2` [Compound 329, (2R)-6-chloro-4-oxo-N-[3-(2-{[2-(trifluoromethyl)pyrimidin-5-yl]oxy}acetamido)bicyclo[1.1.1]pentan-1-yl]-3,4-dihydro-2H-1-benzopyran-2-carboxamide], the EC50 lay in the range of 50 to 250 nM.

Consider `COC1CC(C(=O)NC23CC(NC(=O)COc4ccc(Cl)c(F)c4)(C2)C3)Oc2ccc(F)cc21` (stereo not shown) [Compound 330, N-{3-[2-(4-chloro-3-fluorophenoxy)acetamido]bicyclo[1.1.1]pentan-1-yl}-6-fluoro-4-methoxy-3,4-dihydro-2H-1-benzopyran-2-carboxamide], for which the EC50 was in the range of 50 to 250 nM.

`O=C(COc1ccc(Cl)cn1)NC12CC(NC(=O)[C@H]3CC(=O)c4cc(Cl)ccc4O3)(C1)C2` [Compound 331, (2R)-6-chloro-N-(3-{2-[(5-chloropyridin-2-yl)oxy]acetamido}bicyclo[1.1.1]pentan-1-yl)-4-oxo-3,4-dihydro-2H-1-benzopyran-2-carboxamide]: the EC50 was in the range of 50 to 250 nM.

As for `O=C(COc1ccc(Cl)c(F)c1)NC12CC(NC(=O)C3CC(=O)c4cc(F)ccc4O3)(C1)C2` (stereo not shown) [Compound 332, N-{3-[2-(4-chloro-3-fluorophenoxy)acetamido]bicyclo[1.1.1]pentan-1-yl}-6-fluoro-4-oxo-3,4-dihydro-2H-1-benzopyran-2-carboxamide], the EC50 was < 10 nM.

Turning to `COc1ncc(OCC(=O)NC23CC(NC(=O)[C@H]4CC(=O)c5cc(Cl)ccc5O4)(C2)C3)cn1` [Compound 333, (2R)-6-chloro-N-(3-{2-[(2-methoxypyrimidin-5-yl)oxy]acetamido}bicyclo[1.1.1]pentan-1-yl)-4-oxo-3,4-dihydro-2H-1-benzopyran-2-carboxamide], the EC50 was in the range of 250 to 500 nM.

Take `O=C(COc1ccc(C(F)(F)F)nc1)NC12CC(NC(=O)[C@@H]3CC(=O)c4cc(Cl)ccc4O3)(C1)C2` [Compound 335, (2S)-6-chloro-4-oxo-N-[3-(2-{[6-(trifluoromethyl)pyridin-3-yl]oxy}acetamido)bicyclo[1.1.1]pentan-1-yl]-3,4-dihydro-2H-1-benzopyran-2-carboxamide]: the EC50 lay within 50 to 250 nM.

As to `O=C(COc1ccc(Cl)c(F)c1)NC12CC(NC(=O)C3CC(NCC(F)(F)F)c4cc(Cl)ccc4O3)(C1)C2` (stereo not shown) [Compound 336, 6-chloro-N-{3-[2-(4-chloro-3-fluorophenoxy)acetamido]bicyclo[1.1.1]pentan-1-yl}-4-[(2,2,2-trifluoroethyl)amino]-3,4-dihydro-2H-1-benzopyran-2-carboxamide], the EC50 lay in the range of 250 to 500 nM.

`O=C(COc1ccc(Cl)c(F)c1)NC12CCC(NC(=O)C3CC(O)c4cc(Cl)ccc4O3)(CC1)CC2` (stereo not shown) [Compound 337, 6-chloro-N-{4-[2-(4-chloro-3-fluorophenoxy)acetamido]bicyclo[2.2.2]octan-1-yl}-4-hydroxy-3,4-dihydro-2H-1-benzopyran-2-carboxamide]: the EC50 is < 10 nM.

As to `O=C(COc1ccc(Cl)c(F)c1)NC12CC(NC(=O)C3CC(NC4(CO)CC4)c4cc(Cl)ccc4O3)(C1)C2` (stereo not shown) [Compound 339, 6-chloro-N-{3-[2-(4-chloro-3-fluorophenoxy)acetamido]bicyclo[1.1.1]pentan-1-yl}-4-{[1-(hydroxymethyl)cyclopropyl]amino}-3,4-dihydro-2H-1-benzopyran-2-carboxamide], the EC50 fell in the range of 10 to 50 nM.

On to `Cc1ccc2oc(C(=O)NC34CC(NC(=O)COc5ccc(Cl)c(F)c5)(C3)C4)cc(=O)c2c1` [Compound 341, N-{3-[2-(4-chloro-3-fluorophenoxy)acetamido]bicyclo[1.1.1]pentan-1-yl}-6-methyl-4-oxo-4H-1-benzopyran-2-carboxamide], for which the EC50 is < 10 nM.

`O=C(COc1ccc(Cl)c(Cl)c1)NC12CC(NC(=O)[C@@H]3CC(=O)c4cc(F)c(F)cc4O3)(C1)C2` [Compound 342, (2S)—N-{3-[2-(3,4-dichlorophenoxy)acetamido]bicyclo[1.1.1]pentan-1-yl}-6,7-difluoro-4-oxo-3,4-dihydro-2H-1-benzopyran-2-carboxamide]: the EC50 lay in the range of 10 to 50 nM.

In the case of `Cc1csc(C(=O)NC23CCC(NC(=O)[C@H]4C[C@@H](O)c5cc(Cl)ccc5O4)(CC2)[C@@H](O)C3)n1` [Compound 344, N-[(3S)-4-{[(2R,4R)-6-chloro-4-hydroxy-3,4-dihydro-2H-1-benzopyran-2-carbonyl]amino}-3-hydroxybicyclo[2.2.2]octan-1-yl]-4-methyl-1,3-thiazole-2-carboxamide], the EC50 lay within 50 to 250 nM.

Usually EC50 stands for the concentration giving half of the maximal effect.
